Blank lines part the entries; values can stand above or below the compound they belong to.
Legend:
[1] = target: T1, Serine/threonine-protein kinase PAK 4 (Homo sapiens, UniProt O96013); test: Inhibition of human PAK4 assessed as enzymatic activity at 2 uM incubated for 20 mins by filter binding method relative to control
Target sequence in this assay (O96013 whole entry, looked up): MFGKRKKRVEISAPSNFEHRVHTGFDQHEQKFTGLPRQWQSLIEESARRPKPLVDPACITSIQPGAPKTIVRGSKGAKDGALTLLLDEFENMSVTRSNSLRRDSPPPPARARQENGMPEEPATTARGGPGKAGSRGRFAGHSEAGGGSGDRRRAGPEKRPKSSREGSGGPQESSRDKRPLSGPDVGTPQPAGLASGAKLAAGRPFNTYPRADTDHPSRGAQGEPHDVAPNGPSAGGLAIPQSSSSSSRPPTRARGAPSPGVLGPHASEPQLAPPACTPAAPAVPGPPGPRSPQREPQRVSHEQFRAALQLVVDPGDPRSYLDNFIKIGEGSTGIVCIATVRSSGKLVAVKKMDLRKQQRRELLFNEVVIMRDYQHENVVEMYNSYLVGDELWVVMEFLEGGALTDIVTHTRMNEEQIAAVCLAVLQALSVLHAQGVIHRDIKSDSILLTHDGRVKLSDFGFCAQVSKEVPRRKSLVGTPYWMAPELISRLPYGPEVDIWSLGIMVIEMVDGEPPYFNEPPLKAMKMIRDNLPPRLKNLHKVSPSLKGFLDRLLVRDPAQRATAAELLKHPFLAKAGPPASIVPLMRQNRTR

[2] = target: T1, Serine/threonine-protein kinase PAK 4; test: Inhibition of human PAK4 assessed as enzymatic activity incubated for 20 mins by filter binding method
Target sequence in this assay (O96013 whole entry): as the sequence (O96013 whole entry, looked up) above

[3] = Cytotoxicity against HEK293T cells assessed as cell growth inhibition incubated for 72 hrs by cell titre glo luminescence assay; format: toxicity, cell-based, HEK-293T; settings: human
MDA-MB-231 = test: Antiproliferative activity against human MDA-MB-231 cells assessed as cell growth inhibition incubated for 72 hrs by cell titre glo luminescence assay; format: functional, cell-based; settings: MDA-MB-231, 72 h
MV4-11 [4] = test: Antiproliferative activity against human MV4-11 cells assessed as cell growth inhibition incubated for 72 hrs by cell titre glo luminescence assay; format: functional, cell-based; settings: MV4-11, 72 h
[5] = target: T1, Serine/threonine-protein kinase PAK 4; test: Inhibition of human PAK4 assessed as inhibition constant
Target sequence in this assay (O96013 whole entry): as the sequence (O96013 whole entry, looked up) above

MV4-11 [6] = test: Induction of apoptosis in human MV4-11 cells assessed as viable cells at 250 nM incubated for 48 hrs by annexin V-FITC and propidium iodide staining based flow cytometry analysis (reference value: 95.6 %); format: functional; settings: read-out: Activity
MV4-11 [7] = test: Induction of apoptosis in human MV4-11 cells assessed as late apoptotic cells at 50 nM incubated for 48 hrs by annexin V-FITC and propidium iodide staining based flow cytometry analysis (reference value: 1.67 %); format: functional
MV4-11 [8] = test: Induction of cell cycle arrest in human MV4-11 cells assessed as accumulation at G2/M phase at 10 nM incubated for 24 hrs by propidium iodide staining based flow cytometry analysis (reference value: 7.46 %); format: functional
MV4-11 [9] = test: Induction of cell cycle arrest in human MV4-11 cells assessed as accumulation at G0/G1 phase at 10 nM incubated for 24 hrs by propidium iodide staining based flow cytometry analysis (reference value: 66.79 %); format: functional
MV4-11 [10] = test: Induction of apoptosis in human MV4-11 cells assessed as early apoptotic cells at 10 nM incubated for 48 hrs by annexin V-FITC and propidium iodide staining based flow cytometry analysis (reference value: 3.71 %); format: functional
MV4-11 [11] = test: Induction of apoptosis in human MV4-11 cells assessed as late apoptotic cells at 10 nM incubated for 48 hrs by annexin V-FITC and propidium iodide staining based flow cytometry analysis (reference value: 1.67 %); format: functional
MV4-11 [12] = test: Induction of apoptosis in human MV4-11 cells assessed as viable cells at 50 nM incubated for 48 hrs by annexin V-FITC and propidium iodide staining based flow cytometry analysis (reference value: 95.6 %); format: functional; settings: read-out: Activity
MV4-11 [13] = test: Induction of cell cycle arrest in human MV4-11 cells assessed as accumulation at G2/M phase at 5 nM incubated for 24 hrs by propidium iodide staining based flow cytometry analysis (reference value: 7.46 %); format: functional
MV4-11 [14] = test: Induction of cell cycle arrest in human MV4-11 cells assessed as accumulation at G0/G1 phase at 50 nM incubated for 24 hrs by propidium iodide staining based flow cytometry analysis (reference value: 66.79 %); format: functional
MV4-11 [15] = test: Induction of cell cycle arrest in human MV4-11 cells assessed as accumulation at S phase at 10 nM incubated for 24 hrs by propidium iodide staining based flow cytometry analysis (reference value: 25.75 %); format: functional
MV4-11 [16] = test: Induction of apoptosis in human MV4-11 cells assessed as early apoptotic cells at 250 nM incubated for 48 hrs by annexin V-FITC and propidium iodide staining based flow cytometry analysis (reference value: 3.71 %); format: functional
MV4-11 [17] = test: Induction of apoptosis in human MV4-11 cells assessed as necrotic cells at 10 nM incubated for 48 hrs by annexin V-FITC and propidium iodide staining based flow cytometry analysis (reference value: 0.013 %); format: functional
MV4-11 [18] = test: Induction of cell cycle arrest in human MV4-11 cells assessed as accumulation at G0/G1 phase at 5 nM incubated for 24 hrs by propidium iodide staining based flow cytometry analysis (reference value: 66.79 %); format: functional
[19] = target: T1, Serine/threonine-protein kinase PAK 4; test: Inhibition of PAK4 phosphorylation at Ser474 residue in human MV4-11 cells at 50 to 800 nM incubated for 24 hrs by Western blot analysis; format: cell-based; settings: dose 50-800 nM, DDE = dose-dependent effect
Target sequence in this assay (O96013 whole entry, looked up): as above

MV4-11 [20] = test: Induction of cell cycle arrest in human MV4-11 cells assessed as accumulation at S phase at 5 nM incubated for 24 hrs by propidium iodide staining based flow cytometry analysis (reference value: 25.75 %); format: functional
MV4-11 [21] = test: Induction of apoptosis in human MV4-11 cells assessed as viable cells at 10 nM incubated for 48 hrs by annexin V-FITC and propidium iodide staining based flow cytometry analysis (reference value: 95.6 %); format: functional; settings: read-out: Activity
MV4-11 [22] = test: Induction of apoptosis in human MV4-11 cells assessed as necrotic cells at 250 nM incubated for 48 hrs by annexin V-FITC and propidium iodide staining based flow cytometry analysis (reference value: 0.013 %); format: functional
MV4-11 [23] = test: Induction of apoptosis in human MV4-11 cells assessed as necrotic cells at 50 nM incubated for 48 hrs by annexin V-FITC and propidium iodide staining based flow cytometry analysis (reference value: 0.013 %); format: functional
MV4-11 [24] = test: Induction of apoptosis in human MV4-11 cells assessed as late apoptotic cells at 250 nM incubated for 48 hrs by annexin V-FITC and propidium iodide staining based flow cytometry analysis (reference value: 1.67 %); format: functional
MV4-11 [25] = test: Induction of cell cycle arrest in human MV4-11 cells assessed as accumulation at G2/M phase at 50 nM incubated for 24 hrs by propidium iodide staining based flow cytometry analysis (reference value: 7.46 %); format: functional
MV4-11 [26] = test: Induction of apoptosis in human MV4-11 cells assessed as early apoptotic cells at 50 nM incubated for 48 hrs by annexin V-FITC and propidium iodide staining based flow cytometry analysis (reference value: 3.71 %); format: functional
MV4-11 [27] = test: Induction of cell cycle arrest in human MV4-11 cells assessed as accumulation at S phase at 50 nM incubated for 24 hrs by propidium iodide staining based flow cytometry analysis (reference value: 25.75 %); format: functional

SMILES: COc1cccc(Nc2nc(NC3CCNCC3)c3cc[nH]c3n2)c1
- inhibition [1]: 46.2%

SMILES: CC1(N)CCN(c2nc(Nc3cccc(Cl)c3)nc3[nH]ccc23)CC1
- inhibition [1]: 35.5%

SMILES: Clc1cccc(Nc2nc(NCC3CCNCC3)c3cc[nH]c3n2)c1
- inhibition [1]: 25.9%

SMILES: Fc1cccc(Nc2nc(NC3CCNCC3)c3cc[nH]c3n2)c1
- IC50 [2]: 165 nM
- inhibition [1]: 38.3%

SMILES: N[C@H]1CC[C@H](Nc2nc(Nc3cccc(Cl)c3)nc3[nH]ccc23)CC1
- IC50 [2]: 20.2 nM
- IC50 at 72 h [3]: 7390 nM
- IC50 (MDA-MB-231): 2480 nM
- IC50 (MV4-11 [4]): 38.3 nM

SMILES: Nc1ccc(/C=C/C(=O)NCc2cc3cc(-c4ccc(C(=O)N5CCC(F)(F)CC5)cc4)cc(-c4ccc(F)cc4)c3o2)cn1 [PADNARSERTIB]
- IC50 [2]: 100 nM

SMILES: N[C@@H]1CCCN(c2nc(Nc3cccc(Cl)c3)nc3[nH]ccc23)C1
- IC50 [2]: 229 nM
- inhibition [1]: 72.5%

SMILES: OCC(O)CNc1nc(Nc2ccccc2)nc2[nH]ccc12 (stereo not given)
- inhibition [1]: 82.4%

SMILES: COCCNc1nc2ccc(C#CC3(O)CCCCC3)cc2n1-c1ncnc(N)n1
- Ki [5]: 3.3 nM

SMILES: c1ccc(Nc2nc(N3CCNCC3)c3cc[nH]c3n2)cc1
- inhibition [1]: 89.6%

SMILES: N[C@H]1CC[C@@H](Nc2nc(Nc3cccc(Cl)c3)nc3[nH]ccc23)CC1
- viability at 0.25 µM (MV4-11 [6]): 72.8%
- Activity (MV4-11 [7]): 9.71%
- Activity (MV4-11 [8]): 2.48%
- IC50 [2]: 2.7 nM
- Activity (MV4-11 [9]): 88.81%
- IC50 at 72 h [3]: > 10000 nM
- Activity (MV4-11 [10]): 4.28%
- Activity (MV4-11 [11]): 2.99%
- viability at 0.05 µM (MV4-11 [12]): 78.4%
- Activity (MV4-11 [13]): 3.97%
- Activity (MV4-11 [14]): 90.98%
- Activity (MV4-11 [15]): 8.71%
- Activity (MV4-11 [16]): 14.5%
- Activity (MV4-11 [17]): 0.032%
- Activity (MV4-11 [18]): 78.7%
- IC50 (MDA-MB-231): 825 nM
- inhibition [19]: Dde
- Activity (MV4-11 [20]): 17.34%
- viability at 0.01 µM (MV4-11 [21]): 92.7%
- IC50 (MV4-11 [4]): 7.8 nM
- Activity (MV4-11 [22]): 0.087%
- Activity (MV4-11 [23]): 0.043%
- Activity (MV4-11 [24]): 12.5%
- Activity (MV4-11 [25]): 1.27%
- Activity (MV4-11 [26]): 11.9%
- Activity (MV4-11 [27]): 7.75%

Now from value to compound:

- inhibition [1]: 86.9%
SMILES: OCCNc1nc(Nc2ccccc2)nc2[nH]ccc12

- IC50 [2]: 2940 nM
- inhibition [1]: 64.2%
SMILES: c1ccc(Nc2nc(NC3CCNCC3)c3cc[nH]c3n2)cc1

- IC50 [2]: 50.3 nM
SMILES: Clc1cccc(Nc2nc(NC3CCNCC3)c3cc[nH]c3n2)c1

- IC50 [2]: 9 nM
SMILES: C[C@@H]1CN(C(=O)c2nc(Nc3cc(C4CC4)[nH]n3)c3cc(Cl)ccc3n2)CCN1

- inhibition [1]: 91.6%
SMILES: c1ccc(Nc2nc(N3CCOCC3)c3cc[nH]c3n2)cc1

- inhibition [1]: 61%
SMILES: NCC1CCCN(c2nc(Nc3cccc(Cl)c3)nc3[nH]ccc23)C1 (stereo not given)

- IC50 [2]: 229 nM
- inhibition [1]: 38.3%
SMILES: N[C@H]1CCCN(c2nc(Nc3cccc(Cl)c3)nc3[nH]ccc23)C1

From ChEMBL document CHEMBL5143622, “Synthesis and biological evaluation of 7H-pyrrolo [2,3-d] pyrimidine derivatives as potential p21-activated kinase 4 (PAK4) inhibitors” (Bioorg Med Chem, 2022)
